What was measured:
[1] = test system: recombinant NL4-3 virus (nef section replaced with Renilla luciferase gene) in MT-2 cells; experiment: HIV cell culture assay (antiviral activity, luciferase readout); type: cell-based; conditions: Renilla, NL43, MT-2 cells infected for 4-5 days with recombinant NL4-3 Renilla luciferase virus
Method in brief: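 Antiviral EC50 derived from luciferase signal using the exponential median effect equation. Infection of MT-2 cells ran 4-5 days alongside serial dilutions of compound, with virus generated by proviral clone transfection of 293T cells.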

[2] = Compound cytotoxicity, XTT-based colorimetric assay; type: cell-based; conditions: human; uninfected MT2 cells, day 4, XTT; read-out: CC50
Method in brief: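 Follows the antiviral assay procedure, but with uninfected MT2 cells. On day 4, cell viability is measured by XTT-based colorimetry, giving CC50 values.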

Row | Structure (SMILES) | EC50 [1] [nM] | CC50 at 4 days [2] [nM]
1 | COCCCn1nc(NS(C)(=O)=O)c2c(Cl)ccc(-n3c([C@H](Cc4cc(F)cc(F)c4)NC(=O)Cn4nc(C(F)F)c5c4C(F)(F)[C@@H]4C[C@H]54)nc4nc(C5CCC(F)(F)CC5)cc(NCCN5CCN(C(C)=O)CC5)c4c3=O)c21 (atropisomer, axis not shown; (P)) [Example 536, N-[(1S)-1-[(3P)-5-{[2-(4-acetylpiperazin-1-yl)ethyl]amino}-3-[4-chloro-3-methanesulfonamido-1-(3-methoxypropyl)-1H-indazol-7-yl]-7-(4,4-difluorocyclohexyl)-4-oxo-3H,4H-pyrido[2,3-d]pyrimidin-2-yl]-2-(3,5-difluorophenyl)ethyl]-2-[(2S,4R)-9-(difluoromethyl)-5,5-difluoro-7,8-diazatricyclo[4.3.0.0^2,^4]nona-1(6),8-dien-7-yl]acetamide] | 0.025 | > 20
2 | Cc1cc(C2(F)CCC(F)(F)CC2)nc2nc([C@H](Cc3cc(F)cc(F)c3)NC(=O)Cn3nc(C(F)F)c4c3C(F)(F)[C@@H]3C[C@H]43)n(-c3ccc(Cl)c4c(NS(C)(=O)=O)nn(CCN5C[C@@H](C)O[C@@H](C)C5)c34)c(=O)c12 (atropisomer, axis not shown; (P)) [Example 502, N-[(1S)-1-[(3P)-3-(4-chloro-1-{2-[(2R,6S)-2,6-dimethylmorpholin-4-yl]ethyl}-3-methanesulfonamido-1H-indazol-7-yl)-5-methyl-4-oxo-7-(1,4,4-trifluorocyclohexyl)-3H,4H-pyrido[2,3-d]pyrimidin-2-yl]-2-(3,5-difluorophenyl)ethyl]-2-[(2S,4R)-9-(difluoromethyl)-5,5-difluoro-7,8-diazatricyclo[4.3.0.0^2,^4]nona-1(6),8-dien-7-yl]acetamide] | 0.019 | > 20
3 | COCCCn1nc(NS(C)(=O)=O)c2c(Cl)ccc(-n3c([C@H](Cc4cc(F)cc(F)c4)NC(=O)Cn4nc(C(F)F)c5c4C(F)(F)[C@@H]4C[C@H]54)nc4nc(C5CCC(F)(F)CC5)cc(CN5CC(C)(C)OC(C)(C)C5)c4c3=O)c21 (atropisomer, axis not shown; (P)) [Example 471, N-[(1S)-1-[(3P)-3-[4-chloro-3-methanesulfonamido-1-(3-methoxypropyl)-1H-indazol-7-yl]-7-(4,4-difluorocyclohexyl)-4-oxo-5-[(2,2,6,6-tetramethylmorpholin-4-yl)methyl]-3H,4H-pyrido[2,3-d]pyrimidin-2-yl]-2-(3,5-difluorophenyl)ethyl]-2-[(2S,4R)-9-(difluoromethyl)-5,5-difluoro-7,8-diazatricyclo[4.3.0.0^2,^4]nona-1(6),8-dien-7-yl]acetamide] | 0.038 | > 20
4 | Cc1cc(C2(C)CCC(F)(F)CC2)nc2nc([C@H](Cc3cc(F)cc(F)c3)NC(=O)Cn3nc(C(F)F)c4c3C(F)(F)[C@@H]3C[C@H]43)n(-c3ccc(Cl)c4c(NS(C)(=O)=O)nn(CCN5C[C@@H](C)O[C@@H](C)C5)c34)c(=O)c12 (atropisomer, axis not shown; (P)) [Example 505, N-[(1S)-1-[(3P)-3-(4-chloro-1-{2-[(2R,6S)-2,6-dimethylmorpholin-4-yl]ethyl}-3-methanesulfonamido-1H-indazol-7-yl)-7-(4,4-difluoro-1-methylcyclohexyl)-5-methyl-4-oxo-3H,4H-pyrido[2,3-d]pyrimidin-2-yl]-2-(3,5-difluorophenyl)ethyl]-2-[(2S,4R)-9-(difluoromethyl)-5,5-difluoro-7,8-diazatricyclo[4.3.0.0^2,^4]nona-1(6),8-dien-7-yl]acetamide] | 0.013 | > 20
5 | CO[C@H](C)Cn1nc(NS(C)(=O)=O)c2c(Cl)ccc(-n3c([C@H](Cc4cc(F)cc(F)c4)NC(=O)Cn4nc(C(F)F)c5c4C(F)(F)[C@@H]4C[C@H]54)nc4nc(C5CCC(F)(F)CC5)cc(C)c4c3=O)c21 (atropisomer, axis not shown; (P)) [Example 77, N-[(1S)-1-[(3P)-3-{4-chloro-3-methanesulfonamido-1-[(2R)-2-methoxypropyl]-1H-indazol-7-yl}-7-(4,4-difluorocyclohexyl)-5-methyl-4-oxo-3H,4H-pyrido[2,3-d]pyrimidin-2-yl]-2-(3,5-difluorophenyl)ethyl]-2-[(2S,4R)-9-(difluoromethyl)-5,5-difluoro-7,8-diazatricyclo[4.3.0.0^2,^4]nona-1(6),8-dien-7-yl]acetamide] | 0.018 | > 50
6 | COC[C@H]1CN(CCn2nc(NS(C)(=O)=O)c3c(Cl)ccc(-n4c([C@H](Cc5cc(F)cc(F)c5)NC(=O)Cn5nc(C(F)F)c6c5C(F)(F)[C@@H]5C[C@H]65)nc5nc(C6CCC(F)(F)CC6)ccc5c4=O)c32)CCO1 (atropisomer, axis not shown; (P)) [Example 356, N-[(1S)-1-[(3P)-3-(4-chloro-3-methanesulfonamido-1-{2-[(2R)-2-(methoxymethyl)morpholin-4-yl]ethyl}-1H-indazol-7-yl)-7-(4,4-difluorocyclohexyl)-4-oxo-3H,4H-pyrido[2,3-d]pyrimidin-2-yl]-2-(3,5-difluorophenyl)ethyl]-2-[(2S,4R)-9-(difluoromethyl)-5,5-difluoro-7,8-diazatricyclo[4.3.0.0^2,^4]nona-1(6),8-dien-7-yl]acetamide] | 0.029 | > 50
7 | CS(=O)(=O)Nc1nn(CCN2CCC3(CC2)COC3)c2c(-n3c([C@H](Cc4cc(F)cc(F)c4)NC(=O)Cn4nc(C(F)F)c5c4C(F)(F)[C@@H]4C[C@H]54)nc4nc(C5CCC(F)(F)CC5)ccc4c3=O)ccc(Cl)c12 (atropisomer, axis not shown; (P)) [Example 170, N-[(1S)-1-[(3P)-3-[4-chloro-3-methanesulfonamido-1-(2-{2-oxa-7-azaspiro[3.5]nonan-7-yl}ethyl)-1H-indazol-7-yl]-7-(4,4-difluorocyclohexyl)-4-oxo-3H,4H-pyrido[2,3-d]pyrimidin-2-yl]-2-(3,5-difluorophenyl)ethyl]-2-[(2S,4R)-9-(difluoromethyl)-5,5-difluoro-7,8-diazatricyclo[4.3.0.0^2,^4]nona-1(6),8-dien-7-yl]acetamide] | 0.032 | > 50
8 | Cc1cc(C2CCC(F)(F)CC2)nc2nc([C@H](Cc3cc(F)cc(F)c3)NC(=O)Cn3nc(C4CC4)c4c3C[C@@H]3C[C@H]43)n(-c3ccc(Cl)c4c(NS(C)(=O)=O)nn(CCN5C[C@@H](F)C[C@H](F)C5)c34)c(=O)c12 (atropisomer, axis not shown; (P)) [Example 444, N-[(1S)-1-[(3P)-3-(4-chloro-1-{2-[(3S,5S)-3,5-difluoropiperidin-1-yl]ethyl}-3-methanesulfonamido-1H-indazol-7-yl)-7-(4,4-difluorocyclohexyl)-5-methyl-4-oxo-3H,4H-pyrido[2,3-d]pyrimidin-2-yl]-2-(3,5-difluorophenyl)ethyl]-2-[(2S,4S)-9-cyclopropyl-7,8-diazatricyclo[4.3.0.0^2,^4]nona-1(6),8-dien-7-yl]acetamide] | 0.009 | > 20

From patent US12594276B2, “Inhibitors of human immunodeficiency virus replication” (ViiV Healthcare UK (No.5) Limited, priority 2024, dated 2026)
